Reference: article PMC3985639, “A widespread bacteriophage abortive infection system functions through a Type IV toxin–antitoxin mechanism” (Nucleic Acids Research, 2014)

Target: T1, AbiEii (AbiEii-His6) (Streptococcus agalactiae, UniProt Q8DZ35)
T1 construct: gene abiGII; full-length, C-terminal His6 tag kept, from pRLD56 in E. coli BL21 co-expressing AbiEi (pRLD69), Ni-NTA purified
T1 sequence (Q8DZ35 1-281): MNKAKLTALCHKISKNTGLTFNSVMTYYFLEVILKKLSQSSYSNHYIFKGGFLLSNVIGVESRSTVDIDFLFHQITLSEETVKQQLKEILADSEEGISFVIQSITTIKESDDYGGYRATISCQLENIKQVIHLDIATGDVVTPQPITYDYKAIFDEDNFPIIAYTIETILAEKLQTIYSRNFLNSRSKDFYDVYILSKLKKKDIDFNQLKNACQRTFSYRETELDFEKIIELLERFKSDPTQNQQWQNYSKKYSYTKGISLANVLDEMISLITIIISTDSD
Assay: native PAGE gel shift of [α-32P]-NTP
Format: binding
Conditions: labelled compound; 0.65 pmol; 10 mM Tris-HCl, […] MgCl2, 50 mM KCl, pH 8.3, 37 °C, 1 h

Nc1ncnc2c1ncn2[C@@H]1O[C@H](COP(=O)(O)OP(=O)(O)OP(=O)(O)O)[C@@H](O)[C@H]1O [ATP]
native PAGE gel shift of [α-32P]-NTP: Limited binding to ATP was also observed

Nc1nc2c(ncn2[C@@H]2O[C@H](COP(=O)(O)OP(=O)(O)OP(=O)(O)O)[C@@H](O)[C@H]2O)c(=O)[nH]1 [GTP]
native PAGE gel shift of [α-32P]-NTP: Increasing AbiEii-His6 concentrations led to retardation in GTP migration, demonstrating GTP binding
